Assay results taken from ChEMBL document CHEMBL1122893, “Bile acids with cyclopropane-containing side chain. 2. Synthesis and properties of 3 alpha,7 beta-dihydroxy-22,23-methylene-5 beta-cholan-24-oic acid (2-sulfoethyl)amide” (J Med Chem, 1985).

experiment: Evaluated for critical micellular concentration (CMC) by dye solubilization method

Row | Structure (SMILES) | CMC [mM]
1 | CC(C1CC1C(=O)NCCS(=O)(=O)O)C1CC[C@H]2[C@@H]3[C@@H](O)CC4C[C@H](O)CCC4(C)[C@H]3CCC12C (stereo partly drawn) | 14.5
2 | CC(CCC(=O)NCCS(=O)(=O)O)C1CC[C@H]2[C@@H]3[C@@H](O)CC4C[C@H](O)CCC4(C)[C@H]3CCC12C (stereo partly drawn) | 18
3 | CC(C1CC1C(=O)O)C1CC[C@H]2[C@@H]3[C@@H](O)CC4C[C@H](O)CCC4(C)[C@H]3CCC12C (stereo partly drawn) | 15.5
